Patent US9933367B2, “Method to identify and isolate pluripotent stem cells using endogenous blue fluorescence” (NATIONAL CENTRE FOR BIOLOGICAL SCIENCES, priority 2012, dated 2018)
“Also recorded” adds a separate entry of the source.

Legend:
[1] = system: HPSCs; assay: Supplementing HPSC culture media with retinyl palmitate or retinol; blue fluorescence of lipid bodies; type: cell-based, human
From the text: All non-confocal epifluorescence images are obtained with a Nikon Eclipse TE2000-E-PFS (Japan) microscope with a Photometrix Cascade II 512 EM-CCD camera (Roper Scientific, USA) and Image Pro-Plus AMS software (Media Cybernetics, USA). The Nikon objectives used are 60×/NA1.4 oil immersions and 10×/NA 0.3 for all experiments. Fluorescence is visualized using band pass filters (Chroma Technology, USA). The filters used are Blue (Exciter—350 nm/50, Dichoric—400 nm long pass, Emitter—460 nm/50), Green (Exciter—500 nm/20, Dichoric—535 nm/30, Emitter—515 long pass) and Red (Exciter—450 nm/30, Dichoric—620 nm/0, Emitter—570 long pass). Confocal images are acquired using a Zeiss LSM 510 Meta Confocal set up with a 63× objective and a 405 laser (excitation—405 nm, emission—about 420 nm to about 490 nm). […] For quantitative analysis and depiction of images for direct comparison, for e.g. between mouse ES cells and human ES cells, all the images presented have the same intensity scale bounded by the adjusted maximum value of the HuES cell image. Scatter plot and linear fit analyses of pluripotency marker expression (OCT4, SOX2 and Nanog) and blue fluorescence is performed with fluorescence intensity values of individual pixels using the ‘plot profile’ application from ImageJ. […] The increase in fluorescence intensities is also found to be confined to the lipid bodies.

[2] = system: mouse embryonic stem cells; assay: Mouse ES cells grown in media with additional retinol; blue fluorescence and lipid bodies; type: cell-based; conditions: 20% KOSR media with retinol, 48 hours
From the text: The increase in fluorescence intensities is also found to be confined to the lipid bodies.

[3] = system: HuES cells; assay: HuES cells in retinol-free E8 media supplemented with retinol; fluorescent lipid bodies; type: cell-based, human; conditions: HuES cells cultured in E8 media (lacks retinol), retinol 10 μM added
Method: HuES cells cultured in E8 media show a rapid decrease in lipid bodies along with associated fluorescence in 24 hours, and the lipid bodies are completely absent by 72 hours (FIG. 10). […] A possible reason could be the differential expression of proteins involved in retinoid uptake and metabolism between the two states/cell types.

CC1=C(/C=C/C(C)=C/C=C/C(C)=C/CO)C(C)(C)CCC1 [retinol]
blue fluorescence in the HPSCs emanating from the lipid bodies ([1]; culture media supplemented with retinol): dose-dependent increase
retinoid-associated (blue) fluorescence [2]: practically no increase; also recorded: do not show any increase in blue fluorescence
fluorescent lipid bodies after addition to E8 cultures [3]: re-appearance of fluorescent lipid bodies; also recorded: regain blue fluorescent lipid bodies in 48 hours

CCCCCCCCCCCCCCCC(=O)OC/C=C(C)/C=C/C=C(C)/C=C/C1=C(C)CCCC1(C)C [retinyl palmitate]
mean blue fluorescence intensity in the lipid bodies ([1]; HPSCs on MEF feeder cells, typical media with 20% KOSR, supplemented at 2-10 μM, after 24 hours): dose-dependent saturable increase; also recorded: dose dependent increase in blue fluorescence
